In patent US6518296B1, “Substituted 3-thiocarbamoylpyrazoles” (Bayer Aktiengesellschaft, priority 1998, dated 2003):

What was measured:
[1] = test system: green peach aphid (Myzus persicae); test: Myzus test; type: in vivo; details: active compound concentration of 0.1%; after 6 days; dipped cabbage leaves
Protocol: Solvent: 7 parts by weight of dimethylformamide
Emulsifier: 1 part by weight of alkylaryl polyglycol ether
To produce a suitable preparation of active compound, 1 part by weight of active compound is mixed with the stated amounts of solvent and emulsifier, and the concentrate is diluted with water to the desired concentration.
Cabbage leaves (Brassica oleracea) which are heavily infested by the green peach aphid (Mycus persicae) are treated by being dipped into the preparation of active compound of the desired concentration.
After the desired period of time, the kill in % is determined. 100% means that all aphids have been killed; 0% means that none of the aphids have been killed.

Lucilia cuprina larvae = test: Blowfly larvae test/development-inhibitory action; type: in vivo; details: active compound concentration of 100 ppm, read-out: activity (development-inhibitory action; 100% means that no flies have hatched)
Protocol: Blowfly larvae test/development-inhibitory action
Test animals: Lucilia cuprina larvae
(§1) Solvent: Dimethyl sulphoxide
(§2) 20 mg of active compound are dissolved in 1 ml of dimethyl sulphoxide, while dilute concentrations are prepared by dilution with dist. H2O.
About 20 Lucilia cuprina larvae are introduced into a test tube containing about 1 cm^3 of horse meat and 0.5 ml of the preparation of active compound. After 24 and 48 hours, the activity of the preparation of active compound is determined. The test tubes are transferred into beakers whose bottom is covered with sand. After a further 2 days, the test tubes are removed and the pupae are counted.
The activity of the active compound preparation is assessed by the number of flies which have hatched after 1.5 times the development time of an untreated control. 100% means that no flies have hatched; 0% means that all flies have hatched normally.

[2] = test system: Boophilus microplus resistant/SP-resistant Parkhurst strain; test: Test with Boophilus microplus resistant/SP-resistant Parkhurst strain (dip test, kill); type: in vivo; details: active compound concentration of 100 ppm; dipped for 1 minute
Protocol: Test with Boophilus microplus resistant/SP-resistant Parkhurst strain
(§3) Test animals: Adult females which have sucked themselves full
as §1, §2
10 adult Boophilus microplus res. are dipped for 1 minute into the preparation of active compound to be tested. The animals are transferred into plastic beakers and kept in a climatized room, and the kill rate is then determined.
100% means that all ticks have been killed; 0% means that none of the ticks have been killed.

[3] = test system: Boophilus microplus resistant/SP-resistant Parkhurst strain; test: Test with Boophilus microplus resistant/SP-resistant Parkhurst strain (injection, inhibition of oviposition); type: in vivo; details: 20 μg/animal; injected into the abdomen; after 7 days
Protocol: Test with Boophilus microplus resistantlSP-resistant Parkhurst strain
as §3, §1
20 mg of active compound are dissolved in 1 ml of dimethyl sulphoxide, while dilute concentrations are prepared by dilution with the same solvent.
The test is carried out in 5 replications. […] of the solutions is injected into the abdomen, the animals are transferred into dishes and kept in a climatized room. After 7 days, the activity control is carried out for inhibition of ovi position. An activity of 100% means that none of the ticks has deposited eggs.

CCSc1c(C(N)=S)nn(-c2c(Cl)cc(C(F)(F)F)cc2Cl)c1N [Preparation Example 1, 5-amino-4-ethylthio-l-(2,6-dichloro-4-trifluoro-methylphenyl)-3-thiocarbamoyl-pyrazole]
kill [1]: 90%
inhibition at 100 ppm (Lucilia cuprina larvae): 100%
activity (kill rate of ticks) [2]: 100%
activity (inhibition of oviposition) [3]: 100%
melting point: 101 °C
